Test results as given in ChEMBL document CHEMBL1201862, “PubChem BioAssay data set” (2004).
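Cells were grown in 96-well plates and exposed to each compound for 48 hours at five concentrations; endpoints were interpolated linearly between bracketing concentrations, or set to the highest concentration if not reached. GI50: concentration for 50% inhibition of growth.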 Calls of active or inactive are those of the source. Rule as the data show it: active = GI50 up to about 1.1 µM and inactive = higher.

How the values were obtained:
Experiment in all cases: growth of human tumour cells (NCI), 48 h
IGROV-1 = tested on: IGROV-1
NCI-H23 = tested on: NCI-H23
U-251 = tested on: U-251
DU-145 = tested on: DU-145
OVCAR-4 = tested on: OVCAR-4
SR = tested on: SR
HCT-116 = tested on: HCT-116
HCT-15 = tested on: HCT-15
SK-MEL-2 = tested on: SK-MEL-2
MOLT-4 = tested on: MOLT-4
HOP-92 = tested on: HOP-92
K562 = tested on: K562
SK-MEL-5 = tested on: SK-MEL-5
SN12C = tested on: SN12C
COLO 205 = tested on: COLO 205
SW-620 = tested on: SW-620
UACC-62 = tested on: UACC-62
LOX IMVI = tested on: LOX IMVI
CCRF-CEM = tested on: CCRF-CEM
Malme-3M = tested on: Malme-3M

Compound	GI50 (IGROV-1)	GI50 (NCI-H23)	GI50 (U-251)	GI50 (DU-145)	GI50 (OVCAR-4)	GI50 (SR)	GI50 (HCT-116)	GI50 (HCT-15) [µM]	GI50 (SK-MEL-2)	GI50 (MOLT-4)	GI50 (HOP-92)	GI50 (K562)	GI50 (SK-MEL-5)	GI50 (SN12C)	GI50 (COLO 205)	GI50 (SW-620)	GI50 (UACC-62)	GI50 (LOX IMVI)	GI50 (CCRF-CEM)	GI50 (Malme-3M)
CNc1nc(=O)c(C#N)c(-c2ccc(C)cc2)s1	> 100 µM (inactive)	> 100 µM (inactive)	> 100 µM (inactive)	> 100 µM (inactive)	> 100 µM (inactive)	> 100 µM (inactive)	> 100 µM (inactive)	> 100	> 100 µM (inactive)	> 100 µM (inactive)	> 100 µM (inactive)	> 100 µM (inactive)	> 100 µM (inactive)	> 100 µM (inactive)	> 100 µM (inactive)	> 100 µM (inactive)	> 100 µM (inactive)	> 100 µM (inactive)	> 100 µM (inactive)	> 100 µM (inactive)
Cc1cccc(NC(=S)N/N=C(/c2ccccc2)c2ccccn2)c1	< 0.0182 µM (active)	< 0.0282 µM (active)	0.0299 µM (active)	0.942 µM (active)	0.368 µM (active)	< 0.0144 µM (active)	< 0.0131 µM (active)	0.0255	2.49 µM (inactive)	< 0.0149 µM (active)	0.484 µM (active)	< 0.0135 µM (active)	0.108 µM (active)	0.359 µM (active)	< 0.0163 µM (active)	< 0.019 µM (active)	0.267 µM (active)	0.0224 µM (active)	< 0.01 µM (active)	0.174 µM (active)
C1CN1c1nc(N2CC2)nc(N2CC2)n1	14.2 µM (inactive)	2.73 µM (inactive)	3.92 µM (inactive)	2.78 µM (inactive)	16.2 µM (inactive)	0.5 µM (active)	8.55 µM (inactive)	12.9	17.7 µM (inactive)	0.495 µM (active)	10 µM (inactive)	10.4 µM (inactive)	6.19 µM (inactive)	2.95 µM (inactive)	13.6 µM (inactive)	11 µM (inactive)	1.84 µM (inactive)	3.08 µM (inactive)	0.82 µM (active)	11.7 µM (inactive)
COc1c(O)cc2oc(-c3ccc(O)cc3)cc(=O)c2c1O [HISPIDULIN]	22.7 µM (inactive)	42.2 µM (inactive)	42.7 µM (inactive)	30.5 µM (inactive)	35.8 µM (inactive)	27.9 µM (inactive)	35.3 µM (inactive)	38.7	27.2 µM (inactive)	25.4 µM (inactive)	2.91 µM (inactive)	34.8 µM (inactive)	15.5 µM (inactive)	39.4 µM (inactive)	90.4 µM (inactive)	34.1 µM (inactive)	19 µM (inactive)	39.2 µM (inactive)	20.6 µM (inactive)	74.8 µM (inactive)
